Literature values, collected in patent publication US5831002A, “Antitumor peptides” (BASF Aktiengesellschaft, priority 1995, dated 1998).

Conditions: background, literature; cited from earlier work

Substance | cell growth inhibitory activity
Dolastatin-10 | potent cell growth inhibitory activity
Dolastatin-15 | potent cell growth inhibitory activity
